Reference: PubChem BioAssay (NCI)
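Interpolation was linear, between the two tested concentrations surrounding the appropriate level; five concentrations were tested over 48 hours in 96-well plates. At the GI50, growth is halved. TGI: concentration producing complete growth inhibition.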

Experiments:
Test in all cases: NCI tumour cell line growth inhibition, 48 h
P388 leukemia = test system: P388 leukemia
XF 498 CNS = test system: XF 498 CNS
HOP-18 NSCLC = test system: HOP-18 NSCLC
DLD-1 colon = test system: DLD-1 colon
DMS 114 small cell lung = test system: DMS 114 small cell lung
M19-MEL melanoma = test system: M19-MEL melanoma
SN12K1 renal = test system: SN12K1 renal
KM20L2 colon = test system: KM20L2 colon
P388/ADR leukemia = test system: P388/ADR leukemia
LXFL 529 NSCLC = test system: LXFL 529 NSCLC
RXF-631 renal = test system: RXF-631 renal

Row | Structure (SMILES) | TGI (P388 leukemia) [µM] | TGI (XF 498 CNS) [µM] | TGI (HOP-18 NSCLC) [µM] | TGI (DLD-1 colon) [µM] | TGI (DMS 114 small cell lung) [µM] | TGI (M19-MEL melanoma) [µM] | TGI (SN12K1 renal) [µM] | TGI (KM20L2 colon) [µM] | TGI (P388/ADR leukemia) [µM] | GI50 (LXFL 529 NSCLC) [nM] | TGI (LXFL 529 NSCLC) [µM] | TGI (RXF-631 renal) [µM]
1 | COc1ccc(C2CC(c3sc(Nc4ccc(C)cc4)nc3C)=NN2)cc1 (stereo unspecified) | 20.3 | 36.7 | 35.4 | 35.7 | 30 | > 59 | 28.9 | 31.3 | 24.3 | – | – | –
2 | CCC1(O)C(=O)OCc2c1cc1n(c2=O)Cc2cc3cc4c(cc3nc2-1)OCO4 (stereo unspecified) | 0.117 | 0.225 | 0.824 | > 60.3 | 0.0284 | 0.205 | 0.331 | 0.738 | < 0.0172 | 128 | 2.27 | 1.13
3 | CCC1(CC)C(=O)NC(=O)NC1=S | – | – | > 100 | > 100 | > 100 | > 100 | – | > 100 | – | – | > 100 | –
4 | O=[N+]([O-])c1ccc(C[P+]2(c3ccccc3)CCCCC2)cc1 (tested in a mixture with another compound) | – | > 100 | 65.8 | > 100 | > 100 | – | – | – | – | – | > 100 | > 100
5 | CN(C)CCNC(=O)c1cccc2c1C(=O)c1ccccc1C2=O | 43.9 | > 100 | > 100 | > 77.6 | 32.8 | 41.7 | > 100 | 77 | 48.4 | – | – | –
6 | Nc1nnc(N)n1N | – | > 100 | – | > 100 | > 100 | > 100 | – | – | – | – | > 100 | > 100
7 | ClCCCN1CCN(CCCl)CC1 | > 840 | 147 | > 1000 | 319 | 203 | 773 | 575 | > 1000 | > 529 | – | – | –
8 | COc1ccc2[nH]c3ccc4cc[n+](CCN5CCC(C6CCN(CC[n+]7ccc8ccc9[nH]c%10ccc(OC)cc%10c9c8c7)CC6)CC5)cc4c3c2c1 | > 100 | > 75.9 | 15.1 | > 100 | 4.08 | 16.1 | > 52 | > 100 | > 100 | – | – | –
